Here are results for five compounds from ChEMBL document CHEMBL3045417, “Structure, Conformation and Absolute Configuration of New Antifeedant Dolabellanes from Trichilia trifolia” (2000).

In this assay the test system is Sitophilus oryzae. Nature of the assay: Antifeedant activity against Sitophilus oryzae (rice weevil) assessed as mean diet consumed after 72 hr by flour disk bioassay based feeding choice assay (reference value: 7.61 +/- 1.59 mg/day). It counts as functional.
On to `C=C(C)[C@H]1CC[C@]2(C)C/C=C(\C)CC/C=C(\C(=O)OC)CC[C@@H]12`, for which the Activity is 6.74 mg/day.
With `C=C(C)[C@H]1CC[C@]2(C)C[C@H](OC(C)=O)[C@]3(C)CCC=C(CC[C@@H]12)C(=O)O3`, the Activity was 6.61 mg/day.
With `C=C(C)[C@H]1CC[C@]2(C)C/C=C(\C)CC/C=C(\C(=O)O)CC[C@@H]12` the figure was 1.17 mg/day.
With `C=C(C)[C@H]1CC[C@]2(C)C/C=C(\C)C[C@@H]3C=C(CC[C@@H]12)C(=O)O3` the figure was 3.36 mg/day.
Consider `C=C(C)[C@H]1CC[C@]2(C)C[C@H](O)[C@]3(C)CCC=C(CC[C@@H]12)C(=O)O3`, for which the Activity is given as 1.03 mg/day.
